70 compounds from PubChem BioAssay AID179 (DTP/NCI, 2004) can be followed below.

This assay has as its system CEM cells HIV-1 protection, formazan growth assay. The experiment in a line: NCI AIDS Antiviral Assay. To be noted: for IC50: measured here: growth of uninfected CEM cells. An outline of the steps: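 Five concentrations of each compound were applied to infected and uninfected human CEM cells. Protection from HIV-1 was judged from growth measured with a soluble formazan assay.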

Active and inactive are the calls of the source.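 How the source made its calls: active means compounds giving half or more protection of infected cells from virus-caused growth loss, again on retest; inactive means the rest.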

`C[C@H]1C(=O)O[C@@H]1[C@H]1COC(C)(C)O1`: the EC50 is above 200 µM and the IC50 is above 200 µM.
For the compound `CC(=O)c1c(O)ccc(O)c1-n1nc(C)c([N+](=O)[O-])c1C`, the EC50 is above 224 µM and the IC50 was above 224 µM.
As to `O=C1CN(S(=O)(=O)c2ccc([N+](=O)[O-])cc2)CC(=O)CN(S(=O)(=O)c2ccc([N+](=O)[O-])cc2)C1`, the EC50 was above 200 µM and the IC50 was above 200 µM.
Turning to `OCC(CO)C1c2cccc3ccc4cccc1c4c23`, the result was inactive.
`Clc1nc(Cl)nc(Nc2ncccn2)n1`: the EC50 is above 200 µM and the IC50 was above 200 µM.
Consider `COP(=O)(Cc1ccc(/C=C/C#N)o1)OC`, for which the EC50 is above 200 µM and the IC50 is above 200 µM.
For `O=C(/C=C/c1ccc(O)cc1)CC(=O)/C=C/c1ccc(O)cc1`, the EC50 was above 200 µM and the IC50 came to 9.55 µM.
`CC1OC(n2cc(F)c(=O)[nH]c2=O)C=CC1O` (stereo unspecified): the EC50 was above 1020 µM and the IC50 was 407 µM.
With `O=C(Nc1nc(C23CC4CC(CC(C4)C2)C3)cs1)c1cc2ccc(O)cc2oc1=O`, the EC50 was above 200 µM and the IC50 is 7.41 µM.
As for `O=CC[C@H]1C(=O)C[C@@H]2CCC[C@@H]21`, the EC50 is above 794 µM and the IC50 was determined as 44.7 µM.
With `CCOC(=O)c1nc2ccccc2nc1Nc1cc(OC)c(OC)c(OC)c1`, the EC50 is above 200 µM and the IC50 is above 200 µM.
Turning to `N#Cc1c(Br)n(C2OC(CO)C(O)C2O)c2ncn3ccnc3c12` (stereo unspecified), the EC50 is above 200 µM and the IC50 is above 200 µM.
Turning to `CC(=O)[O-].CC(=O)[O-].O=C(N/N=C/c1cc(Cl)cc(Cl)c1[OH2+])c1ccncc1.[Zn+2]`, the result was inactive.
Turning to `CCN1C(=O)C(=O)C(CC)(CC)C1=O`, the EC50 was above 200 µM and the IC50 was above 200 µM.
As for `COCCCNC(=O)C1C(=O)C(=O)N(CCCOC)C1=O` (stereo unspecified), the result was inactive.
Take `COc1ccccc1-n1cnc2c1NC(C)(C)N=C2C(N)=O`: the EC50 is above 200 µM and the IC50 is above 200 µM.
Consider `CC(=O)OC1c2ccccc2CCCCCCC12OCCO2` (stereo unspecified), for which the EC50 was above 200 µM and the IC50 was 105 µM.
For `COC(=O)C(=O)C(C(=O)C(=O)Nc1cc(Cl)c(Cl)cc1Cl)c1nc2ccc([N+](=O)[O-])cc2[nH]c1=O` (stereo unspecified), the EC50 was above 457 µM and the IC50 came out at 95.5 µM.
Turning to `CCCCCCCCCCN(CCCCCCCCCC)C(=O)COc1c2cc(C(C)(C)C)cc1Cc1cc(C(C)(C)C)cc(c1OCC(=O)N(CCCCCCCCCC)CCCCCCCCCC)Cc1cc(C(C)(C)C)cc(c1OCC(=O)N(CCCCCCCCCC)CCCCCCCCCC)Cc1cc(C(C)(C)C)cc(c1OCC(=O)N(CCCCCCCCCC)CCCCCCCCCC)C2`, the EC50 was above 50.1 µM and the IC50 worked out at 3.39 µM.
Regarding `CCCCC1C(=O)N2[C@H](OC[C@@H]2C(C)C)O[C@@H]1C` (stereo partly specified), the EC50 is above 977 µM and the IC50 worked out at 501 µM.
On to `Cc1cccc(C(=O)O)c1C(=O)c1cccc2ccccc12`, for which the outcome was inactive.
Regarding `O=c1cc2c(n[nH]1)CCCC2`, the EC50 is above 708 µM and the IC50 is above 708 µM.
For `C1CSCCSCCSCCSCCSCCS1`, the EC50 is above 14.5 µM and the IC50 was above 14.5 µM.
As to `CCOC1CC2OC(=O)C1C=C2C(=O)OC` (stereo unspecified), the outcome was inactive.
In the case of `CC(=O)OC(CC1(C)C(C)CCC23COC(=O)C2=CCCC31)C1=CC(=O)OC1O` (stereo unspecified), the EC50 is above 447 µM and the IC50 was above 447 µM.
`N#Cc1c(N)c2c(c(-c3ccccc3)c1-c1ccccc1)C(=O)N(Nc1ccccc1)C2=O`: the EC50 was above 200 µM and the IC50 came out at 27.5 µM.
Take `O=[N+]([O-])c1ccc(N=Nc2ccc3c(c2)-c2ccccc2C3=P(c2ccccc2)(c2ccccc2)c2ccccc2)cc1`: the EC50 is above 200 µM and the IC50 was 33.1 µM.
As for `C=CCCCCCCCCC(=O)ON(Cc1ccc(O)c(OC)c1)C(=O)C(F)(F)F`, the EC50 was above 200 µM and the IC50 is above 200 µM.
As for `CC(C)=Nn1cnc2c1NC(C)(C)N=C2C(N)=O`, the EC50 was above 200 µM and the IC50 is above 200 µM.
Turning to `CC12CCCCC1CC(=O)/C(=C\O)C2` (stereo unspecified), the EC50 is above 200 µM and the IC50 was 77.6 µM.
Turning to `O=C(O)CCCSC(=O)Nc1ccc(N=Nc2ccccc2)cc1`, the result was inactive.
For `COc1cccc(C=C2C(=O)NC(=O)NC2=O)c1`, the EC50 is above 145 µM and the IC50 was above 145 µM.
Turning to `O=C(O)CCc1ccc(NC(=O)CN(CCO)CCO)cc1`, the EC50 is above 200 µM and the IC50 is above 200 µM.
Turning to `COc1ccc(N(C)S(=O)(=O)c2ccccc2)cc1`, the EC50 was above 200 µM and the IC50 is 123 µM.
Regarding `NC(CSC[C@H](N)C(=O)O)C(=O)O` (stereo partly specified), the result was inactive.
Turning to `COc1ccc(C2CC(c3c(O)ccc4ccccc34)=NN2)cc1OC` (stereo unspecified), the EC50 is above 200 µM and the 50% inhibitory concentration (IC50) is 5.5 µM.
On the same counts, the results for `O=c1c(-c2ccc(Cl)cc2)nnc2n(Cc3ccccc3)c3ccccc3n12` are above 200 µM and above 200 µM.
Consider `CN(CCO)c1nc2c(c(=O)[nH]1)CCC2`, for which the EC50 was above 240 µM and the IC50 was above 240 µM.
With `COc1ccc(C(SCC(N)C(=O)O)(c2ccc(OC)cc2)c2ccc(OC)cc2)cc1` (stereo unspecified), the EC50 is above 200 µM and the IC50 was 31.6 µM.
For `Cc1nc2c(nc1C)C(=O)C(Cl)=C(N)C2=O`, the outcome was inactive.
On to `COc1ccn(C)c(=O)c1C#N`, for which the EC50 was above 1510 µM and the IC50 was above 1510 µM.
For `O=C1C(C(O)(C(F)(F)Cl)C(F)(F)Cl)CCCC1C(O)(C(F)(F)Cl)C(F)(F)Cl` (stereo unspecified), the EC50 was above 200 µM and the IC50 came out at 10 µM.
Turning to `CN1C(c2ccccc2)CC(=NOCc2ccccc2)CC1c1ccccc1` (stereo unspecified), the EC50 was above 200 µM and the IC50 was determined as 8.71 µM.
As to `CC(=O)NC1Cc2ccccc2C1=O` (stereo unspecified), the EC50 is above 200 µM and the IC50 is above 200 µM.
`CN(C)CC/C(=N\Nc1ccc(Cl)cc1)c1ccccc1`: the result was inactive.
On to `CCCCCCCCCCCCCCCC(=O)Nc1ccn(C2CCC(COP(=O)(O)OCC3OC(n4ccc(NC(=O)CCCCCCCCCCCCCCC)nc4=O)CC3OP(=O)(O)OCC3OC(n4ccc(NC(=O)CCCCCCCCCCCCCCC)nc4=O)CS3)O2)c(=O)n1` (stereo unspecified), for which the EC50 is 1.1 µM and the IC50 turned out to be 83.2 µM.
Take `Cn1c(=O)c2/c(n(C)c1=O)=N\C=c1\c(=O)n(C)c(=O)n(C)\c1=N\C=2`: the EC50 was above 182 µM and the half-inhibitory concentration (IC50) was above 182 µM.
For `COc1ccc(C2=C(N)c3ncccc3C2=O)cc1`, the EC50 was above 200 µM and the IC50 turned out to be 132 µM.
On the same counts, the results for `N#CC1=C(Cl)NC(Cl)=C(C#N)C1c1c(Cl)cccc1Cl` are 18.2 µM and above 100 µM.
For the compound `N#CC1(C#N)NC(c2ccccc2)C(C#N)(C#N)NC1c1ccccc1` (stereo unspecified), the EC50 is above 200 µM and the IC50 is above 200 µM.
As to `C=C1CN(S(=O)(=O)c2ccc(C)cc2)CCCN(C2CCCC2)CCCN(S(=O)(=O)c2ccc(C)cc2)C1`, the EC50 was above 200 µM and the IC50 stood at 4.07 µM.
As to `CC12C(=O)OC(=O)C1(C)C1C=CC2O1` (stereo unspecified), the EC50 is above 200 µM and the IC50 came out at 132 µM.
`Cc1cc2c(c3oc(=O)ccc13)[C@@H](OC(=O)C13CCC(C)(C(=O)O1)C3(C)C)[C@@H](OC(=O)C13CCC(C)(C(=O)O1)C3(C)C)C(C)(C)O2` (stereo partly specified): the EC50 is 0.38 µM and the IC50 was determined as 2 µM.
As to `CCOC(=O)C[P+](c1cccc(F)c1)(c1cccc(F)c1)c1cccc(F)c1`, the EC50 was above 200 µM and the IC50 worked out at 166 µM.
On to `CC1(CCC#N)CCC(N)=CC1=O` (stereo unspecified), for which the EC50 is above 200 µM and the IC50 is above 200 µM.
Consider `Cn1c2ccccc2c2n[nH]c(=S)nc21`, for which the EC50 was 55 µM and the IC50 is above 200 µM.
Consider `COc1ccc(-c2oc3cc(OC)c(OC)c(OC)c3c(=O)c2OC)cc1OC`, for which the EC50 is above 200 µM and the IC50 was 3.8 µM.
For the compound `COc1cc(C2c3cc4c(cc3OC3(O)COC(=O)C23)OCO4)cc(OC)c1OC` (stereo unspecified), the EC50 was above 200 µM and the IC50 was found to be 105 µM.
On the same counts, the results for `CCCCCCCCCCCC(=O)OC[C@@H](C[As](=O)(O)O)OC(=O)CCCCCCCCCCC` are above 200 µM and 3.89 µM.
As for `O=C(CN1CCC(O)(c2ccc(F)cc2)CC1)N1CCN(C/C=C/c2ccccc2)CC1`, the EC50 is above 200 µM and the IC50 is 28.8 µM.
`COC1/C=C/OC2(C)Oc3c(C)c(O)c4c(O)c(c(/C=N/n5cnc6c(ncn6C6OC(CO)C(O)C6O)c5=O)c(O)c4c3C2=O)NC(=O)/C(C)=C\C=C\C(C)C(O)C(C)C(O)C(C)C(OC(C)=O)C1C` (stereo unspecified): the EC50 was above 200 µM and the IC50 came to 66.1 µM.
As for `COC(=O)/C(=N\N)C(C(=O)C(=O)Nc1cc(Cl)ccc1Cl)c1nc2ccc([N+](=O)[O-])cc2[nH]c1=O` (stereo unspecified), the EC50 was above 182 µM and the IC50 was 83.2 µM.
Regarding `CC12C(=O)OCC1C1CCC2C1` (stereo unspecified), the EC50 is above 537 µM and the IC50 is above 537 µM.
In the case of `CC(C)Oc1c(-c2c(OC(C)C)c(=O)c2=O)c(=O)c1=O`, the EC50 was above 200 µM and the IC50 is above 200 µM.
Take `CC1(C)CC(=O)C(CC(C(=O)C(=O)Nc2cc(C(F)(F)F)ccc2Cl)C(=O)c2ccco2)C(=O)C1` (stereo unspecified): the EC50 is above 51.3 µM and the IC50 came out at 42.7 µM.
As to `CCC12CCC3CCCCC3(OO1)[C@@H](OC)O2` (stereo partly specified), the EC50 was above 51.3 µM and the IC50 is above 51.3 µM.
With `NC(=O)CN(CC(N)=O)C(N)=O`, the EC50 is above 724 µM and the IC50 was above 724 µM.
In the case of `COC(=O)c1cc(C(=CCCC(C)[C@H]2CCC3C4CC[C@@H]5CCCC[C@]5(C)C4CC[C@@]32C)c2cc(Cl)c(OC)c(C(=O)OC)c2)cc(Cl)c1OC` (stereo partly specified), the EC50 was above 200 µM and the IC50 was 39.8 µM.
Turning to `CC(=O)NCCCCNCCCNC(C)=O`, the EC50 was above 200 µM and the IC50 is above 200 µM.
As to `CC(=O)N(/N=C1\CC(c2ccccc2)Oc2ccccc21)C(C)=O` (stereo unspecified), the EC50 is above 200 µM and the IC50 amounted to 102 µM.
